Earlier results, collected in patent US20240316039A1, “METHOD OF REDUCING ELEVATED INTRAOCULAR PRESSURE” (SUN PHARMA ADVANCED RESEARCH COMPANY LIMITED, priority 2021, published 2024).
Where two headings read alike, the source gives them in different places.

System: ocular hypertensive eyes and normotensive eyes

## Brc1c(NC2=NCCN2)ccc2nccnc12 [Brimonidine]
In vivo
  duration of effect: less than 12 hours
  time of peak effect after instillation: ≤ 2 h
Normotensive eyes (less than 21 mm Hg)
  peak IOP reduction: 6-18%
Ocular hypertensive eyes
  peak IOP reduction: 20-25%
